Results as given in patent US11420961B2, “Heterocyclic compounds” (Hoffmann-La Roche Inc., priority 2017, dated 2022).

Molecular target: T1, MAGL (recombinant wild-type) (Homo sapiens, UniProt Q99685)
T1 sequence (Q99685 1-303): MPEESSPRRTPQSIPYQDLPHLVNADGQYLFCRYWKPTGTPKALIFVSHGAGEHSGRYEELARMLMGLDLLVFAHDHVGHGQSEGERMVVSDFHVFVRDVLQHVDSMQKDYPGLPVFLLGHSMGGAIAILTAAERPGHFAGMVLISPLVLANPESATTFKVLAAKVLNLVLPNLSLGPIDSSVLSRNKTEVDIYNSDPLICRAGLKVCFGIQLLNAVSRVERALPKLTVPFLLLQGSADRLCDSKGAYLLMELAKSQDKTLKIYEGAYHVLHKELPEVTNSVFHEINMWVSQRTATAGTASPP
Assay: 4-NPA assay: MAGL inhibitory activity by hydrolysis of 4-nitrophenylacetate, absorbance at 405 nm
Format: biochemical
Settings: 4-NPA assay (values without footnote [a])
How it was run: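 Compound (final 25 μM to 1.7 nM, 3-fold steps) was preincubated 15 min at RT with 1 nM MAGL in 50 mM Tris, 1 mM EDTA, then 300 μM 4-nitrophenylacetate was added. A405 was read after 5 min and again 80 min later at RT, and activity was taken as the difference between the two reads.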

| IC50 | Compound |
| --- | --- |
| 0.56 nM | O=C1COc2ccc(C(=O)N3CCC([C@@H](c4ccccc4)c4cccc(F)c4)CC3)cc2N1 [Example 74, 6-[4-[(S)-(3-fluorophenyl)-phenyl-methyl]piperidine-1-carbonyl]-4H-1,4-benzoxazin-3-one] |
| 0.43 nM | O=C1COc2ccc(C(=O)N3CCC([C@H](c4ccccc4)c4cccc(F)c4)CC3)cc2N1 [Example 75, 6-[4-[(R)-(3-fluorophenyl)-phenyl-methyl]piperidine-1-carbonyl]-4H-1,4-benzoxazin-3-one] |
| 0.53 nM | O=C1COc2ccc(C(=O)N3CCC([C@H](c4ccc(F)cc4)c4cccc(OCCF)c4)CC3)cc2N1 [Example 76, 6-[4-[(R)-[3-(2-fluoroethoxy)phenyl]-(4-fluorophenyl)methyl]piperidine-1-carbonyl]-4H-1,4-benzoxazin-3-one] |
| 1.66 nM | O=C1COc2ccc(C(=O)N3CCC([C@@H](c4ccc(F)cc4)c4cccc(OCCF)c4)CC3)cc2N1 [Example 77, 6-[4-[(S)-[3-(2-fluoroethoxy)phenyl]-(4-fluorophenyl)methyl]piperidine-1-carbonyl]-4H-1,4-benzoxazin-3-one] |
| 1.84 nM | O=C1COc2ccc(C(=O)N3CCC(C(c4ccccc4)c4cccnc4F)CC3)cc2N1 (stereo not drawn) [Example 78, 6-[4-[(2-fluoro-3-pyridyl)-phenyl-methyl]piperidine-1-carbonyl]-4H-1,4-benzoxazin-3-one] |
| 6 nM | O=C1COc2ccc(C(=O)N3CCC([C@H](c4ccccc4)c4ccc(OCCF)cc4)CC3)cc2N1 [Example 79, 6-[4-[(R)-[4-(2-fluoroethoxy)phenyl]-phenyl-methyl]piperidine-1-carbonyl]-4H-1,4-benzoxazin-3-one] |
| 0.3 nM | O=C1COc2ccc(C(=O)N3CCC([C@@H](c4ccccc4)c4ccc(OCCF)cc4)CC3)cc2N1 [Example 80, 6-[4-[(S)-[4-(2-fluoroethoxy)phenyl]-phenyl-methyl]piperidine-1-carbonyl]-4H-1,4-benzoxazin-3-one] |
| 1.1 nM | O=C1COc2ccc(C(=O)N3CCC([C@@H](c4ccccc4)c4cccc(OCCF)c4)CC3)cc2N1 [Example 81, 6-[4-[(S)-[3-(2-fluoroethoxy)phenyl]-phenyl-methyl]piperidine-1-carbonyl]-4H-1,4-benzoxazin-3-one] |
| 0.69 nM | O=C1COc2ccc(C(=O)N3CCC(C(c4ccccc4)c4cccc(F)c4)CC3)cc2N1 (stereo not drawn) [Example 82, 6-[4-[(3-fluorophenyl)-phenyl-methyl]piperidine-1-carbonyl]-4H-1,4-benzoxazin-3-one] |
| 3.09 nM | O=C1COc2ccc(C(=O)N3CCN(C(c4ccccc4)c4ccccc4)CC3)cc2N1 [Example 83, 6-(4-benzhydrylpiperazine-1-carbonyl)-4H-1,4-benzoxazin-3-one] |
| 5.83 nM | O=C1COc2ccc(C(=O)N3CCN(C(c4ccc(F)cc4)c4ccc(F)cc4)CC3)cc2N1 [Example 84, 6-[4-[bis(4-fluorophenyl)methyl]piperazine-1-carbonyl]-4H-1,4-benzoxazin-3-one] |
| 497 nM | O=C1COc2ccc(C(=O)N3CCN(c4ccc(Cl)c(C(F)(F)F)c4)CC3)cc2N1 [Example 85, 6-[4-[4-chloro-3-(trifluoromethyl)phenyl]piperazine-1-carbonyl]-4H-1,4-benzoxazin-3-one] |
| 612 nM | O=C1COc2ccc(C(=O)N3CCN(c4ccc(Cl)c(Cl)c4)CC3)cc2N1 [Example 86, 6-[4-(3,4-dichlorophenyl)piperazine-1-carbonyl]-4H-1,4-benzoxazin-3-one] |
| 1320 nM | O=C1COc2ccc(C(=O)N3CCN(c4cc(Cl)cc(Cl)c4)CC3)cc2N1 [Example 87, 6-[4-(3,5-dichlorophenyl)piperazine-1-carbonyl]-4H-1,4-benzoxazin-3-one] |
| 1480 nM | O=C1COc2ccc(C(=O)N3CCN(c4cc(C(F)(F)F)ccn4)CC3)cc2N1 [Example 88, 6-[4-[4-(trifluoromethyl)-2-pyridyl]piperazine-1-carbonyl]-4H-1,4-benzoxazin-3-one] |
| 1900 nM | COc1cc(OC)cc(N2CCN(C(=O)c3ccc4c(c3)NC(=O)CO4)CC2)c1 [Example 89, 6-[4-(3,5-dimethoxyphenyl)piperazine-1-carbonyl]-4H-1,4-benzoxazin-3-one] |
| 2220 nM | O=C1COc2ccc(C(=O)N3CCN(c4ccc(C(F)(F)F)cn4)CC3)cc2N1 [Example 90, 6-[4-[5-(trifluoromethyl)-2-pyridyl]piperazine-1-carbonyl]-4H-1,4-benzoxazin-3-one] |
| 2400 nM | O=C1COc2ccc(C(=O)N3CCN(c4nsc5ccccc45)CC3)cc2N1 [Example 91, 6-[4-(1,2-benzothiazol-3-yl)piperazine-1-carbonyl]-4H-1,4-benzoxazin-3-one] |
| 2740 nM | COc1cc(N2CCN(C(=O)c3ccc4c(c3)NC(=O)CO4)CC2)cc(OC)c1OC [Example 92, 6-[4-(3,4,5-trimethoxyphenyl)piperazine-1-carbonyl]-4H-1,4-benzoxazin-3-one] |
| 3.5 nM | O=C1COc2ccc(C(=O)N3CCC(=C(c4ccc(F)cc4)c4ccc(OCCF)cc4)CC3)cc2N1 [Example 93, 6-[4-[[4-(2-Fluoroethoxy)phenyl]-(4-fluorophenyl)methylene]piperidine-1-carbonyl]-4H-1,4-benzoxazin-3-one] |
| 6.4 nM | COc1cc(C(=O)N2CCC(C(c3ccc(F)cc3)c3ccc(F)cc3)CC2)cc2c1CCC(=O)N2 [Example 100, 7-[4-[Bis(4-fluorophenyl)methyl]piperidine-1-carbonyl]-5-methoxy-3,4-dihydro-1H-quinolin-2-one] |
| 2.7 nM | COc1cc(C(=O)N2CCC(C(c3ccccc3)c3ccccc3)CC2)cc2c1CCC(=O)N2 [Example 101, 7-(4-Benzhydrylpiperidine-1-carbonyl)-5-methoxy-3,4-dihydro-1H-quinolin-2-one] |
| 7.9 nM | O=C1CCc2c(cc(C(=O)N3CCC(C(c4ccc(F)cc4)c4ccc(F)cc4)CC3)cc2OCCF)N1 [Example 106, 7-[4-[Bis(4-fluorophenyl)methyl]piperidine-1-carbonyl]-5-(2-fluoroethoxy)-3,4-dihydro-1H-quinolin-2-one] |
| 6.2 nM | O=C1CCc2c(cc(C(=O)N3CCC(C(c4ccccc4)c4ccccc4)CC3)cc2OCCF)N1 [Example 109, 7-(4-Benzhydrylpiperidine-1-carbonyl)-5-(2-fluoroethoxy)-3,4-dihydro-1H-quinolin-2-one] |
| 802 nM | COc1ccc(C(c2ccccc2)C2CN(C(=O)c3ccc4c(c3)NC(=O)CO4)C2)cc1OC (stereo not drawn) [Example 127, 6-[3-[(3,4-Dimethoxyphenyl)-phenyl-methyl]azetidine-1-carbonyl]-4H-1,4-benzoxazin-3-one] |

Molecular target: T2, MAGL (Homo sapiens, UniProt Q99685)
T2 sequence (Q99685 1-303): T1 sequence (Q99685 1-303)
Assay: 2-AG assay: MAGL inhibitory activity by hydrolysis of 2-arachidonoylglycerol to arachidonic acid, mass spectrometry
Format: biochemical
Settings: 2-AG assay (values marked [a])
Experimental: Alternatively, compounds were profiled for MAGL inhibitory activity by determining the enzymatic activity by following the hydrolysis of the natural substrate, 2-arachidonoylglycerol, resulting in arachidonic acid, which can be followed by mass spectrometry. This assay is hereinafter abbreviated “2-AG assay”.
The 2-AG assay was carried out in 384 well assay plates (PP, Greiner Cat #784201) in a total volume of 20 μL. Compound dilutions were made in 100% DMSO (VWR Chemicals 23500.297) in a polypropylene plate in 3-fold dilution steps to give a final concentration range in the assay from 12.5 μM to […]. 0.25 μL compound dilutions (100% DMSO) were added to 9 μL MAGL in assay buffer (50 mM TRIS (GIBCO, 15567-027), 1 mM EDTA (Fluka, 03690-100 ml), 0.01% (v/v) Tween. After shaking, the plate was incubated for 15 min at RT. To start the reaction, 10 μL 2-arachidonoylglycerol in assay buffer was added. The final concentrations in the assay was […] and 8 μM 2-arachidonoylglyerol. After shaking and 30 min incubation at RT, the reaction was quenched by the addition of 40 μL of acetonitrile containing 4 μM of d8-arachidonic acid. The amount of arachidonic acid was traced by an online SPE system (Agilent Rapidfire) coupled to a triple quadrupole mass spectrometer (Agilent 6460). A C18 SPE cartridge (G9205A) was used in an acetonitrile/water liquid setup. The mass spectrometer was operated in negative electrospray mode following the mass transitions 303.1→259.1 for arachidonic acid and 311.1→267.0 for d8-arachidonic acid. The activity of the compounds was calculated based on the ratio of intensities [arachidonic acid/d8-arachidonic acid].

| IC50 | Compound |
| --- | --- |
| 0.27 nM | CS(=O)(=O)c1ccc(C(c2ccccc2)C2CCN(C(=O)c3ccc4c(c3)NC(=O)CO4)CC2)cc1 (single isomer, unassigned) [Example 132, 6-[4-[(S or R)-(4-Methylsulfonylphenyl)-phenyl-methyl]piperidine-1-carbonyl]-4H-1,4-benzoxazin-3-one] |
| 25.1 nM | CS(=O)(=O)c1ccc(C(c2ccccc2)C2CCN(C(=O)c3ccc4c(c3)NC(=O)CO4)CC2)cc1 (single isomer, unassigned) [Example 133, 6-[4-[(R or S)-(4-Methylsulfonylphenyl)-phenyl-methyl]piperidine-1-carbonyl]-4H-1,4-benzoxazin-3-one] |
| 0.11 nM | COc1ccc(C(c2ccccc2)C2CCN(C(=O)c3ccc4c(c3)NC(=O)CO4)CC2)cc1OCCF (single isomer, unassigned) [Example 134, 6-[4-[(S or R)-3-(2-Fluoroethoxy)-4-methoxy-phenyl-phenyl-methyl]piperidine-1-carbonyl]-4H-1,4-benzoxazin-3-one] |
| 4.16 nM | COc1ccc(C(c2ccccc2)C2CCN(C(=O)c3ccc4c(c3)NC(=O)CO4)CC2)cc1OCCF (single isomer, unassigned) [Example 135, 6-[4-[(R or S)-[3-(2-Fluoroethoxy)-4-methoxy-phenyl]-phenyl-methyl]piperidine-1-carbonyl]-4H-1,4-benzoxazin-3-one] |
| 0.24 nM | COc1cc(C(c2ccccc2)C2CCN(C(=O)c3ccc4c(c3)NC(=O)CO4)CC2)ccn1 (single isomer, unassigned) [Example 137, 6-[4-[(R or S)-(2-Methoxy-4-pyridyl)-phenyl-methyl]piperidine-1-carbonyl]-4H-1,4-benzoxazin-3-one] |
